# Molecular target: T1, beta amyloid (Aβ) plaques in the brain (Homo sapiens, UniProt P05067)
# T1 construct: from tissue; host or cells: brain of living subjects (cortex and striatum), in vivo PET
# Experiment: GE067-026 blinded image evaluation (BIE) of amyloid PET images, separate cortical and striatal assessment
# Format: in vivo
# Settings: for Subjects classified C+S+ by BIE assessment / Subjects classified C+S− by BIE assessment / Subjects classified C−S+ by BIE assessment / Subjects classified C−S− by BIE assessment: GE067-026 data set, N = 106; for BIE assessments C+S+ against striatal plaque count by histopathology / BIE assessments C+S− against striatal plaque count by histopathology / BIE assessments C−S− against striatal plaque count by histopathology: N = 108 subjects and 5 readers
# Text: The data presented explore the use of separate cortical and striatal assessments to aid the Thal (amyloid) phase assignation to in life subjects. The data sets used are from a Flutemetamol (18F) Injection Phase III clinical trial. In this trial PET image assessment was compared to histopathological assessment of amyloid pathology from autopsy. The available data for a preliminary analysis of amyloidosis staging using separate cortical and striatal assessments comes from two sources: • (1) The blinded image evaluations (BIEs) from the GE067-026 clinical trial (NCT02090855) • (2) Provisional SUVR determinations in post-hoc analyses of the GE067-026 data During the BIEs for the above trial, 5 independent readers assessed each of 106 amyloid PET images as abnormal or normal. These dichotomous assessments formed the primary analysis for the trial. However, the individual cortical and striatal assessments were recorded and were re-analysed to estimate the cortical and striatal status separately. For each subject, each of the five readers rated 4 cortical regions and 1 striatal region as Aβ positive or Aβ negative.^1 ^1 All regions assessed are bilateral. Readers assessed images bilaterally—left and right hemispheres—but recoded only one result for each of the 5 bilateral regions. Applying the same general principle that if any of the 4 cortical regions are positive this confers cortical positivity, separate cortical and striatal assessments were determined for each case.
# T1 sequence (P05067 672-713 limits assumed): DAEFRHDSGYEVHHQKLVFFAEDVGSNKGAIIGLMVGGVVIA
structure (smiles),measurement,setting,value
CNc1ccc(-c2nc3ccc(O)cc3s2)cc1F [Flutemetamol],Share of C+S− cases that were phase 3,BIE majority assessment,75%
same,Cases identified as C+S− by Majority assessment,"BIE majority, all Thal phases",6
same,Subjects classified C+S+ by BIE assessment,Reader A,73
same,Subjects classified C+S− by BIE assessment,Reader A,5
same,Subjects classified C−S+ by BIE assessment,Reader A,1
same,Subjects classified C−S− by BIE assessment,Reader A,28
same,Subjects classified C+S+ by BIE assessment,Reader B,68
same,Subjects classified C+S− by BIE assessment,Reader B,4
same,Subjects classified C−S+ by BIE assessment,Reader B,0
same,Subjects classified C−S− by BIE assessment,Reader B,35
same,Subjects classified C+S+ by BIE assessment,Reader C,64
same,Subjects classified C+S− by BIE assessment,Reader C,6
same,Subjects classified C−S+ by BIE assessment,Reader C,0
same,Subjects classified C−S− by BIE assessment,Reader C,37
same,Subjects classified C+S+ by BIE assessment,Reader D,35
same,Subjects classified C+S− by BIE assessment,Reader D,38
same,Subjects classified C−S+ by BIE assessment,Reader D,0
same,Subjects classified C−S− by BIE assessment,Reader D,34
same,Subjects classified C+S+ by BIE assessment,Reader E,70
same,Subjects classified C+S− by BIE assessment,Reader E,5
same,Subjects classified C−S+ by BIE assessment,Reader E,2
same,Subjects classified C−S− by BIE assessment,Reader E,30
same,BIE assessments C+S+ against striatal plaque count by histopathology,STR Plaques Frequent,289
same,BIE assessments C+S− against striatal plaque count by histopathology,STR Plaques Frequent,37
same,BIE assessments C−S− against striatal plaque count by histopathology,STR Plaques Frequent,23
same,BIE assessments C+S+ against striatal plaque count by histopathology,STR Plaques Moderate,18
same,BIE assessments C+S− against striatal plaque count by histopathology,STR Plaques Moderate,17
same,BIE assessments C−S− against striatal plaque count by histopathology,STR Plaques Moderate,24
same,BIE assessments C+S+ against striatal plaque count by histopathology,STR Plaques None,0
same,BIE assessments C+S− against striatal plaque count by histopathology,STR Plaques None,1
same,BIE assessments C−S− against striatal plaque count by histopathology,STR Plaques None,98
same,BIE assessments C+S+ against striatal plaque count by histopathology,STR Plaques Sparse,0
same,BIE assessments C+S− against striatal plaque count by histopathology,STR Plaques Sparse,1
same,BIE assessments C−S− against striatal plaque count by histopathology,STR Plaques Sparse,19
same,Cases categorised C+S+ by BIE majority,Thal (amyloid) Phase 0,0
same,Cases categorised C+S− by BIE majority,Thal (amyloid) Phase 0,0
same,Cases categorised C−S+ by BIE majority,Thal (amyloid) Phase 0,0
same,Cases categorised C−S− by BIE majority,Thal (amyloid) Phase 0,7
same,Cases categorised C+S+ by BIE majority,Thal (amyloid) Phase 1,0
same,Cases categorised C+S− by BIE majority,Thal (amyloid) Phase 1,0
same,Cases categorised C−S+ by BIE majority,Thal (amyloid) Phase 1,0
same,Cases categorised C−S− by BIE majority,Thal (amyloid) Phase 1,10
same,Cases categorised C+S+ by BIE majority,Thal (amyloid) Phase 2,0
same,Cases categorised C+S− by BIE majority,Thal (amyloid) Phase 2,0
same,Cases categorised C−S+ by BIE majority,Thal (amyloid) Phase 2,0
same,Cases categorised C−S− by BIE majority,Thal (amyloid) Phase 2,5
same,Cases categorised C+S+ by BIE majority,Thal (amyloid) Phase 3,3
same,Cases categorised C+S− by BIE majority,Thal (amyloid) Phase 3,4
same,Cases categorised C−S+ by BIE majority,Thal (amyloid) Phase 3,0
same,Cases categorised C−S− by BIE majority,Thal (amyloid) Phase 3,7
same,Cases categorised C+S+ by BIE majority,Thal (amyloid) Phase 4,17
same,Cases categorised C+S− by BIE majority,Thal (amyloid) Phase 4,2
same,Cases categorised C−S+ by BIE majority,Thal (amyloid) Phase 4,0
same,Cases categorised C−S− by BIE majority,Thal (amyloid) Phase 4,5
same,Cases categorised C+S+ by BIE majority,Thal (amyloid) Phase 5,46
same,Cases categorised C+S− by BIE majority,Thal (amyloid) Phase 5,0
same,Cases categorised C−S+ by BIE majority,Thal (amyloid) Phase 5,0
same,Cases categorised C−S− by BIE majority,Thal (amyloid) Phase 5,0
